Source: patent publication US20100184695A1, “VASCULAR ENDOTHELIAL CELL-BINDING PEPTIDE” (priority 2007, published 2010)
No end group written: not given here.

Experiments:
HUVEC cells [1] = experiment: Uptake of fluorescently labeled peptide-multiarm PEG conjugate into endothelial cell (image analysis scoring); assay type: cell-based, human; parameters: key: Score 0: No fluorescent luminescent spot in a cell is recognized.; Score 1: Faint fluorescent luminescent spots are recognized in a cell.; Score 2: Fluorescent luminescent spots clearer than in score 1 are recognized in a cell.; Score 3: Many luminescent spots further brighter than in score 2 are seen in a cell; settings: fluorescein-labeled multiarm PEG-peptide conjugate, peptide 16 μM, 8 hours
Description: (§1) PEG having four maleimide groups per molecule (Multiarm PEG, SUNBRIGHT PTE-200MA, manufactured by NOF Corporation) was dissolved in DMSO at the concentration of 2 mM, 20 μl of this solution, and an equivalent amount (20 μl) of a 10 mM fluorescein-labeled peptide solution in DMSO were mixed to react them at room temperature for 2 hours. After 60 μl of PBS was added to dilute the mixture to the total amount of 100 μl, desalting treatment was performed using a spin column (Bio-Rad, Micro Bio-Spin Column 30) equilibrated by washing with 500 μl of PBS three times in advance, and an unbound peptide was separated and removed to obtain a peptide-multiarm PEG conjugate.
A 96-well microplate (glass bottom plate, Nunc No. 164588) was treated with 100 μl of a 1% acidic collagen solution for 10 minutes in advance, and washed with 120 μl of PBS once, and 100 μl of 1×10^5/ml of HUVEC cells were seeded, and cultured under the condition of 37° C. and 5% CO2 for 2 days. Upon use, cells were washed with 150 μl of a medium (EBM-2 medium containing a 2% fetal bovine serum (Cambrex Bio Science, containing a growth factor)) once, and 50 μl of the same medium, and 50 μl of a solution obtained by diluting the multiarm PEG-peptide conjugate (a peptide of SEQ ID No. 12 and a partial peptide thereof (SEQ ID Nos. 17, 18, and 19), a peptide of SEQ ID No. 13 and a partial peptide thereof (SEQ ID Nos. 15, 20, and 21), and a random sequence peptide (SEQ ID No. 77)) prepared in Example 3 (1) with a medium to the peptide concentration of 32 μM were sequentially added, followed by culturing under the condition of 37° C. and 5% CO2 for 8 hours (the peptide concentration at reaction with cells was 16 μM). The cell after the reaction was observed using a confocal laser microscope (Olympus FV1000). The amount of fluorescent luminescent spots derived from the peptide recognized in a cell was scored as follows.
Score 0: No fluorescent luminescent spot in a cell is recognized. Score 1: Faint fluorescent luminescent spots are recognized in a cell. Score 2: Fluorescent luminescent spots clearer than in score 1 are recognized in a cell. Score 3: Many luminescent spots further brighter than in score 2 are seen in a cell.

HUVEC cells [2] = experiment: Uptake of fluorescently labeled peptide-PEG conjugate into endothelial cell (quantitative analysis); assay type: cell-based, human; settings: fluorescein-labeled peptide-multiarm PEG conjugate, peptide 10 μM, 8 hours, 37° C.; fluorescence recovered from cells, added conjugate = 100%
Description: as §1
A 96-well microplate (glass bottom plate, Nunc No. 164588) was treated with 100 μl of a 1% acidic collagen solution for 10 minutes in advance, and washed with 120 μl of PBS once, and 1×10^5/ml of 100 μl of HUVEC cells were seeded, and cultured under the condition of 37° C. and 5% CO2 for 2 days. Upon use, cells were washed with 150 μl of a medium (EBM-2 medium containing a 2% fetal bovine serum (Cambrex Bio Science, containing a growth factor)) once, and 50 μl of the same medium, and 50 μl of a solution obtained by diluting a peptide-multiarm PEG conjugate (SEQ ID Nos. 12, 13, 16 (partial sequence of SEQ ID No. 14), and 77) prepared in Example 3 (1) with a medium to the peptide concentration of 20 μM were sequentially added, followed by culturing under the condition of 37° C. and 5% CO2 for 8 hours (the peptide concentration at reaction with cells was 10 μM). Cells after culturing were washed with 150 μl of a HBSS(+) buffer three times to remove an unbound peptide-multiarm PEG conjugate, and 100 μl of HBSS(+) containing 1% SDS to extract a peptide bound to, or taken into cells. The extract was transferred to another 96-well microplate (black plate), and fluorescence at an excitation wavelength of 490 nm and a detection wavelength of 530 nm was measured using a fluorophotometer. Letting the fluorescent intensity of each of the added peptide-multiarm PEG conjugate to be 100%, the amount (%) of uptake of the peptide into cells was calculated from the fluorescent amount recovered from cells.

HUVEC cells [3] = experiment: Uptake of fluorescently labeled peptide-BSA conjugate into endothelial cell (quantitative analysis); assay type: cell-based, human; settings: fluorescein-labeled peptide-BSA conjugate, peptide 10 μM, 8 hours, 37° C.; fluorescence recovered from cells
Description: (§2) In 1 ml of a 50 mM sodium bicarbonate solution was dissolved 20 mg of BSA, to prepare a 0.3 mM solution. To the total amount (1 ml) of this solution was added 20 μl of a 250 mM solution (final concentration: 5 mM) of NHS-PEO12-maleimide (catalog No. 22112, manufactured by Pierce) which is a divalent crosslinking reagent having a PEG chain spacer, followed by a reaction at room temperature for 1 hour. After the reaction, 100 μl of the solution was desalted using a spin column (Bio-Rad, Micro Bio-Spin Column 30) equilibrated by washing with 500 μl of a 0.1 M sodium phosphate buffer (pH 7.0) three times in advance. An unreacted crosslinking reagent was separated and removed. After desalting, 50 μl of the solution was mixed with an equivalent amount of a 0.1 M sodium phosphate buffer (pH 7.0) to dilute, and to 100 μl of the resulting solution was added 10 μl of a fluorescein-labeled peptide solution in DMSO, followed by a reaction at room temperature for 1 hour. The total amount of the solution after the reaction was desalted using a spin column (Bio-Rad, Micro Bio-Spin Column 30) equilibrated by washing with 500 μl of PBS three times in advance, thereby, an unbound peptide was separated and removed, to obtain a peptide-BSA conjugate solution.
On a 96-well microplate (Corning No. 3595) were seeded 100 μl of 1×10^5/ml HUVEC cells, and cells were cultured under the condition of 37° C. and 5% CO2 for 2 days. Upon use, cells were washed with 150 μl of a medium (EBM-2 medium containing a 2% fetal bovine serum (Cambrex Bio Science, containing a growth factor)) once, and 50 μl of the same medium, and 50 μl of a solution obtained by diluting the peptide-BSA conjugate (SEQ ID Nos. 12, 13, 16, and 77) prepared in Example 3 (2) with a medium to the peptide concentration of 20 μM were sequentially added, followed by culturing under the condition of 37° C. and 5% CO2 for 8 hours (the peptide concentration at reaction with cells was 10 μM). Recovery of the peptide-BSA conjugate bound to, or taken into cells after the reaction, and fluorescence quantitation were performed in the same method as in Example 3.

HUVEC cells [4] = experiment: Uptake of fluorescently labeled peptide-BSA conjugate (image analysis); assay type: cell-based, human; settings: peptide 10 μM, 8 hours
Description: as §2
A 96-well microplate (glass bottom plate, Nunc No. 164588) was treated with 100 μl of a 1% acidic collagen solution for 10 minutes in advance, and washed with 120 μl of PBS once, and 100 μl of 1×10^5/ml of HUVEC cells were seeded, and cultured under the condition of 37° C. and 5% CO2 for 2 days. Upon use, cells were washed with 150 μl of a medium (EBM-2 medium containing a 2% fetal bovine serum (Cambrex Bio Science, containing a growth factor)) once, and 50 μl of the same medium, and 50 μl of a solution obtained by diluting the peptide-BSA conjugate (SEQ ID Nos. 12, 13, 16, and 77) prepared in Example 3 (2) with a medium to the peptide concentration of 20 μM were sequentially added, followed by culturing under the condition of 37° C. and 5% CO2 for 8 hours (the peptide concentration at reaction with cells was 10 μM). Cells after the reaction were observed using a confocal laser microscope (Olympus FV1000).

[5] = system: normal human umbilical vein endothelial cell; experiment: Uptake of peptide-modified liposome encapsulating doxorubicin into HUVEC (quantification analysis); assay type: cell-based; settings: doxorubicin-encapsulated peptide-modified liposome, 6 hours
Description: Hydrogenated soybean phosphatidyl choline (10 mg), cholesterol (3.4 mg),
distearoylphosphatidylethanolamine-polyethylene glycol 5000 (3.5 mg), and distearoylphosphatidylethanolamine-polyethylene glycol 5000-maleimide (3.1 mg) were dissolved in chloroform, and a solvent in a flask was removed using an evaporator to form a thin film. To this was added 1.7 mL of a 250 mM aqueous ammonium sulfate solution, followed by heating at 65° C. The resulting vesicle was adjusted in a particle size with an extruder using, subsequently, porous membranes of the pore sizes of 1.0 μm, 0.4 μm, and 0.2 μm. Into the prepared liposome having the particle diameter of about 200 nm was encapsulated doxorubicin by a remote loading method. After unencapsulated doxorubicin was removed with a column, peptides (SEQ ID Nos. 12, 13, 76 (partial sequence of SEQ ID No. 7), and 78) were added, respectively, at the ⅕ amount based on maleimide, and a liposome into which various peptides are introduced was prepared. Unreacted maleimide was inactivated by adding the 3-fold amount of 2-mercaptoethanol.
Regarding a 50 to 60% confluent normal human umbilical vein endothelial cell cultured in a 24-well plate, a medium was exchanged, and a doxorubicin-encapsulated peptide-modified liposome solution was added in the half amount of a medium. After 6 hours, cells were washed with a phosphate buffer, treated with trypsin, and cells were collected by a centrifugation procedure. To a cell pellet was added 50 μL of 10% Triton X-100 to dissolve cells and the doxorubicin-encapsulated peptide-modified liposome, 350 μL of isopropanol with 10% 0.75 M HCl added thereto was added, and this was allowed to stand overnight at −20° C. After a centrifugation procedure, the supernatant was analyzed with an ODS column, and doxorubicin taken in the cell was quantitated.

HeLa = experiment: Uptake of fluorescently labeled peptide-BSA conjugate (image analysis); assay type: cell-based; settings: HeLa comparative cell; compared with uptake into a HUVEC

## PLALLTVH [Sequence-19]
HUVEC cells [1]
  Intracellular Fluorescence (Score): 1

## SLTVPFLPLYVP [Sequence-13, peptide presented by phage PhD clone3-30]
HUVEC cells [2]
  Recovery of Peptide-PEG conjugate (%): 0.122%
HUVEC cells [3]
  Recovery of Peptide-BSA conjugate (%): 0.116%
HUVEC cells [4]
  Uptake of peptide-BSA conjugate into cell (confocal laser microscopic image): many bright luminescent spots were observed in a cell
[5]
  Amount of uptake of doxorubicin compared with introduction of SEQ ID Nos. 12 and 76: higher
  Amount of uptake of doxorubicin compared with random sequence (SEQ ID No. 78) liposome and liposome with no peptide: remarkably increased
  Amount of uptake of doxorubicin relative to no peptide introduction: about 3 fold
HeLa
  Uptake of peptide-BSA conjugate into cell (confocal laser microscopic image): an extremely small amount of peptides were observed in a cell
HUVEC cells [1]
  Intracellular Fluorescence (Score): 2

## PFLPLYVP [Sequence-15]
HUVEC cells [1]
  Intracellular Fluorescence (Score): 2

## EYDLSTAGGAAA [Sequence-77, reference compound]
HUVEC cells [2]
  Recovery of Peptide-PEG conjugate (%): 0.020%
HUVEC cells [3]
  Recovery of Peptide-BSA conjugate (%): 0.029%
HUVEC cells [4]
  Uptake of peptide-BSA conjugate into cell (confocal laser microscopic image): no peptide in, a cell was observed
HUVEC cells [1]
  Intracellular Fluorescence (Score): 0

## TVPFLPLY [Sequence-21]
HUVEC cells [1]
  Intracellular Fluorescence (Score): 1

## TLPSPLAL [Sequence-17]
HUVEC cells [1]
  Intracellular Fluorescence (Score): 1

## SEQ ID No. 76: partial sequence of SEQ ID No. 7; sequence not printed in the text (VIPILSIYTA; Designed peptide acting as a vascular endothelial cell binding peptide)
[5]
  Amount of uptake of doxorubicin compared with random sequence (SEQ ID No. 78) liposome and liposome with no peptide: remarkably increased

## PSPLALLT [Sequence-18]
HUVEC cells [1]
  Intracellular Fluorescence (Score): 1

## TLPSPLALLTVH [Sequence-12, peptide presented by phage PhD clone1-14]
HUVEC cells [2]
  Recovery of Peptide-PEG conjugate (%): 0.211%
HUVEC cells [3]
  Recovery of Peptide-BSA conjugate (%): 0.127%
HUVEC cells [4]
  Uptake of peptide-BSA conjugate into cell (confocal laser microscopic image): many bright luminescent spots were observed in a cell
[5]
  Amount of uptake of doxorubicin compared with random sequence (SEQ ID No. 78) liposome and liposome with no peptide: remarkably increased
HeLa
  Uptake of peptide-BSA conjugate into cell (confocal laser microscopic image): an extremely small amount of peptides were observed in a cell
HUVEC cells [1]
  Intracellular Fluorescence (Score): 3

## SLTVPFLP [Sequence-20]
HUVEC cells [1]
  Intracellular Fluorescence (Score): 1

## GTQLFLIH [Sequence-16]
HUVEC cells [2]
  Recovery of Peptide-PEG conjugate (%): 0.047%
HUVEC cells [3]
  Recovery of Peptide-BSA conjugate (%): 0.227%
HUVEC cells [4]
  Uptake of peptide-BSA conjugate into cell (confocal laser microscopic image): many bright luminescent spots were observed in a cell
HeLa
  Uptake of peptide-BSA conjugate into cell (confocal laser microscopic image): an extremely small amount of peptides were observed in a cell
